target: glucosylceramide synthase (GCS) (Homo sapiens (Human), UniProt Q16739); assay: UDP-Glo glucosylceramide synthase biochemical assay; conditions: endogenous GCS in Golgi preparations isolated from human A375 malignant melanoma skin cells; UDP detection by luminescence
Source text: A UDP-Glo™ glucosylceramide synthase biochemical assay was utilized to evaluate the effect of test compounds on the activity of endogenous levels of GCS enzyme contained within Golgi preparations isolated from human A375 malignant melanoma skin cells. The UDP-Glo™ glucosylceramide synthase assay uses UDP-Glucose as a nucleotide-glycosyl donor and ceramide as substrate acceptor molecules. In the reaction, glucosylceramide synthase (GCS) transfers glucose from UDP-Glucose to ceramide. Glucosylceramide and UDP are released as products.
Using Promega's UDP-Glo™ Glycosyltransferase assay kit (Promega Corporation, Madison, WI, USA (Promega)), GCS activity was indirectly measured by detecting the amount of UDP produced. An aliquot of GCS enzyme (1.5 μg crude golgi preparation, total protein) and titrated test compound were aliquoted to each well and incubated for 30 minutes at room temperature. […] An equivalent volume of substrate mixture was then added to each well. Following a 20 h incubation at room temperature to allow for GCS turnover of substrate, an equal volume of UDP detection reagent (Promega) was added to each well and incubated for an additional 75 minutes at room temperature to simultaneously convert the accumulated UDP product into ATP and generate light in a luciferase reaction. The generated light was detected using a luminometer. […] luminescence values (RLUs) were normalized to mean “min” and “max” effects, as determined on each plate. “Min” was defined as the mean of the values of the wells treated with vehicle (DMSO) and which represent 0% inhibition; “max” was defined as the mean of the values of the wells treated with a reference inhibitor and which represent the 100% effect. Values for % Emax and EC50 were determined by best-fitting the normalized data to a curve in Activity Base along a four-parameter logistic nonlinear regression (4PL) model (based on the Levenberg-Marquardt algorithm and defined by the equation below): […]
where: n is 4PMin (bottom of the curve); m is 4PMax (top of the curve); i is IP (inflection point of curve); and p is slope. See Levenberg, K., “A Method for the Solution of Certain Problems in Least Squares”, Quart. Appl. Math. 2, (1944), pp 164-168 and Marquardt, D., “An Algorithm for Least Squares Estimation on Nonlinear Parameters”, SIAM J. Appl. Math 11, (1963) pp 431-441.

Sequence of glucosylceramide synthase (GCS) (Q16739 whole entry): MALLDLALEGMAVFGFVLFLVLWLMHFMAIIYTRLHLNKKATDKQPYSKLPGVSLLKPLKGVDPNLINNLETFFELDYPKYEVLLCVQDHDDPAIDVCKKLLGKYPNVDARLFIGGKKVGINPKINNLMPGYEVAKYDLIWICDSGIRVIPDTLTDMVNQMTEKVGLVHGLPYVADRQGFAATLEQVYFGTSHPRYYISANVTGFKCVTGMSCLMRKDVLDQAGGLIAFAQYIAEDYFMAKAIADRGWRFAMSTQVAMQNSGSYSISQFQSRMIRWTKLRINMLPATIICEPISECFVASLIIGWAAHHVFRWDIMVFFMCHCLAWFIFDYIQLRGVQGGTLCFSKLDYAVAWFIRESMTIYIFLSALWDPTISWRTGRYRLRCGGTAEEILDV

| IC50 | Compound |
| --- | --- |
| 3.29 µM | CC(F)(F)c1ccnc(N2CC[C@H](COc3nc(C4CC4)ncc3C#N)C2)c1 [Compound 32, (S)-2-cyclopropyl-4-((1-(4-(1,1-difluoroethyl)pyridin-2-yl)pyrrolidin-3-yl)methoxy)pyrimidine-5-carbonitrile] |
| 1.4 µM | N#Cc1cnc(C2CC2)nc1OC[C@H]1CCN(c2cccc3cnccc23)C1 [Compound 33, (S)-2-cyclopropyl-4-((1-(isoquinolin-5-yl)pyrrolidin-3-yl)methoxy)pyrimidine-5-carbonitrile] |
| 2.05 µM | N#Cc1cnc(C2CC2)nc1OC[C@H]1CCN(c2cccc3ncccc23)C1 [Compound 34, (S)-2-cyclopropyl-4-((1-(quinolin-5-yl)pyrrolidin-3-yl)methoxy)pyrimidine-5-carbonitrile] |
| 2.57 µM | N#Cc1cnc(C2CC2)nc1OC[C@H]1CCN(c2cc(F)ncc2Cl)C1 [Compound 36, (S)-4-((1-(5-chloro-2-fluoropyridin-4-yl)pyrrolidin-3-yl)methoxy)-2-cyclopropylpyrimidine-5-carbonitrile] |
| 3.51 µM | N#Cc1cnc(C2CC2)nc1OC[C@@H]1CCN(c2cc(F)ncc2Cl)C1 [Compound 37, (R)-4-((1-(5-chloro-2-fluoropyridin-4-yl)pyrrolidin-3-yl)methoxy)-2 cyclopropylpyrimidine-5-carbonitrile] |
| 2.94 µM | COc1cc(N2CC[C@@H](COc3nc(C4CC4)ncc3C#N)C2)c(F)cn1 [Compound 38, (R)-2-cyclopropyl-4-((1-(5-fluoro-2-methoxypyridin-4-yl)pyrrolidin-3-yl)methoxy)pyrimidine-5-carbonitrile] |
| 3.99 µM | N#Cc1cnc(C2CC2)nc1OC[C@H]1CCN(c2csc3c(Cl)ncnc23)C1 [Compound 39, (S)-4-((1-(4-chlorothieno[3,2-d]pyrimidin-7-yl)pyrrolidin-3-yl)methoxy)-2-cyclopropylpyrimidine-5-carbonitrile] |
| 0.029 µM | Cc1nc(-c2ccc(N3CC[C@H](COc4nc(C5CC5)ncc4C#N)C3)cc2)co1 [Compound 40, (S)-2-cyclopropyl-4-((1-(4-(2-methyloxazol-4-yl)phenyl)pyrrolidin-3-yl)methoxy)pyrimidine-5-carbonitrile] |
| 0.061 µM | N#Cc1cnc(C2CC2)nc1OC[C@H]1CCN(c2ncc(C(F)(F)F)cn2)C1 [Compound 42, (S)-2-cyclopropyl-4-((1-(5-(trifluoromethyl)pyrimidin-2-yl)pyrrolidin-3-yl)methoxy)pyrimidine-5-carbonitrile] |
| 0.04 µM | N#Cc1cnc(C2CC2)nc1OC[C@H]1CCN(c2ccc(C(F)(F)F)cn2)C1 [Compound 43, (S)-2-cyclopropyl-4-((1-(5-(trifluoromethyl)pyridin-2-yl)pyrrolidin-3-yl)methoxy)pyrimidine-5-carbonitrile] |
| 0.14 µM | N#Cc1cnc(C2CC2)nc1OC[C@H]1CCN(c2ccc(C(F)(F)F)nc2)C1 [Compound 44, (S)-2-cyclopropyl-4-((1-(6-(trifluoromethyl)pyridin-3-yl)pyrrolidin-3-yl)methoxy)pyrimidine-5-carbonitrile] |
| 0.255 µM | N#Cc1cnc(C2CC2)nc1OC[C@@H]1CCN(c2ccc(C(F)(F)F)nc2)C1 [Compound 45, (R)-2-cyclopropyl-4-((1-(6-(trifluoromethyl)pyridin-3-yl)pyrrolidin-3-yl)methoxy)pyrimidine-5-carbonitrile] |
| 4.19 µM | N#Cc1cnc(C2CC2)nc1OC[C@H]1CCN(c2cc(C(F)(F)F)ccn2)C1 [Compound 46, (S)-2-cyclopropyl-4-((1-(4-(trifluoromethyl)pyridin-2-yl)pyrrolidin-3-yl)methoxy)pyrimdiine-5-carbonitrile] |
| 3.09 µM | N#Cc1cnc(C2CC2)nc1OC[C@H]1CCN(c2ccnc(OC3CC3)c2)C1 [Compound 47, (S)-4-((1-(2-cyclopropoxypyridin-4-yl)pyrrolidin-3-yl)methoxy)-2-cyclopropylpyrimidine-5-carbonitrile] |
| 0.969 µM | N#Cc1cnc(C2CC2)nc1NC[C@H]1CCN(c2ccc(-n3cccn3)nc2)C1 [Compound 48, (R)-4-(((1-(6-(1H-pyrazol-1-yl)pyridin-3-yl)pyrrolidin-3-yl)methyl)amino)-2-cyclopropylpyimidine-5-carbonitrile] |
| 1.87 µM | CN(C[C@H]1CCN(c2ccc(-n3cccn3)nc2)C1)c1nc(C2CC2)ncc1C#N [Compound 49, (S)-4-(((1-(6-(1H-pyrazol-1-yl)pyridin-3-yl)pyrrolidin-3-yl)methyl)(methyl)amino)-2-cyclopropylpyrimidine-5-carbonitrile] |
| 0.081 µM | CC(Oc1nc(C2CC2)ncc1C#N)[C@H]1CCN(c2ncc(C(F)(F)F)cn2)C1 (stereo partly drawn) [Compound 50, 2-cyclopropyl-4-(1-((S)-1-(5-(trifluoromethyl)pyrimidin-2-yl)pyrrolidin-3-yl)ethoxy)pyrimidine-5-carbonitrile] |
| 0.09 µM | N#Cc1cnc(C2CC2)nc1OCC12CC1CN(c1ncc(C(F)(F)F)cn1)C2 (stereo not shown) [Compound 51, 2-cyclopropyl-4-((3-(5-(trifluoromethyl)pyrimidin-2-yl)-3-azabicyclo[3.1.0]hexan-1-yl)methoxy)pyrimidine-5-carbonitrile] |
| 0.762 µM | CC1(COc2nc(C3CC3)ncc2C#N)CCN(c2ncc(C(F)(F)F)cn2)C1 (stereo not shown) [Compound 52, 2-cyclopropyl-4-((3-methyl-1-(5-(trifluoromethyl)pyrimidin-2-yl)pyrrolidin-3-yl)methoxy)pyrimidine-5-carbonitrile] |
| 0.148 µM | CC1CN(c2ncc(C(F)(F)F)cn2)CC1COc1nc(C2CC2)ncc1C#N (stereo not shown) [Compound 53, 2-cyclopropyl-4-((4-methyl-1-(5-(trifluoromethyl)pyrimidin-2-yl)pyrrolidin-3-yl)methoxy)pyrimidine-5-carbonitrile] |
| 0.107 µM | N#Cc1cnc(C2CC2)nc1OCC12CC(C1)N(c1ncc(C(F)(F)F)cn1)C2 [Compound 54, 2-cyclopropyl-4-((2-(5-(trifluoromethyl)pyrimidin-2-yl)-2-azabicyclo[2.1.1]hexan-4-yl)methoxy)pyrimidine-5-carbonitrile] |
| 0.078 µM | N#Cc1cnc(C2CC2)nc1OC[C@H]1CCN(c2ccc(-n3cccn3)nc2)C1 [Compound 55, (S)-4-((1-(6-(1H-pyrazol-1-yl)pyridin-3-yl)pyrrolidin-3-yl)methoxy)-2-cyclopropylpyrimidine-5-carbonitrile] |
| 0.161 µM | N#Cc1cnc(C2CC2)nc1OC[C@H]1CCN(c2cnc(-n3cccn3)cn2)C1 [Compound 56, (S)-4-((1-(5-(1H-pyrazol-1-yl)pyrazin-2-yl)pyrrolidin-3-yl)methoxy)-2-cyclopropylpyrimidine-5-carbonitrile] |
| 0.02 µM | N#Cc1cnc(C2CC2)nc1OCC1CCN(c2ccc(Cl)cc2)C1 (stereo not shown) [Compound 57, 4-((1-(4-chlorophenyl)pyrrolidin-3-yl)methoxy)-2-cyclopropylpyrimidine-5-carbonitrile] |
| 0.156 µM | N#Cc1cnc(C2CC2)nc1OCC1CCN(c2ccc(Cl)cc2)C1 (stereo not shown) [Compound 58, 4-((1-(4-chlorophenyl)pyrrolidin-3-yl)methoxy)-2-cyclopropylpyrimidine-5-carbonitrile] |
| 0.363 µM | N#Cc1cnc(C2CC2)nc1OCC1CCCN1c1ccccc1 (stereo not shown) [Compound 59, 2-cyclopropyl-4-((1-phenylpyrrolidin-2-yl)methoxy)pyrimidine-5-carbonitrile] |
| 3.95 µM | N#Cc1cnc(C2CC2)nc1OC1CN(Cc2ccc(F)cc2)C1 [Compound 60, 2-cyclopropyl-4-((1-(4-fluorobenzyl)azetidin-3-yl)oxy)pyrimidine-5-carbonitrile] |
| 1.03 µM | N#Cc1cnc(C2CC2)nc1OC[C@H]1C[C@@H]1c1ccc(F)cn1 [Compound 61, 2-cyclopropyl-4-(((1S,2S)-2-(5-fluoropyridin-2-yl)cyclopropyl)methoxy)pyrimidine-5-carbonitrile] |
| 0.983 µM | N#Cc1cnc(C2CC2)nc1OC[C@@H]1C[C@H]1c1ccc(F)cn1 [Compound 62, 2-cyclopropyl-4-(((1R,2R)-2-(5-fluoropyridin-2-yl)cyclopropyl)methoxy)pyrimidine-5-carbonitrile] |
| 0.0086 µM | COc1ccc2c(c1)C(Nc1nc(C3CC3)ncc1C#N)CC2 (stereo not shown) [Compound 63, 2-cyclopropyl-4-((6-methoxy-2,3-dihydro-1H-inden-1-yl)amino)pyrimidine-5-carbonitrile] |

| Compound | IC50 |
| --- | --- |
| N#Cc1ccc(N2CC[C@H](COc3nc(C4CC4)ncc3C#N)C2)cc1F [Compound 35, (S)-4-((1-(4-cyano-3-fluorophenyl)pyrrolidin-3-yl)methoxy)-2-cyclopropylpyrimidine-5-carbonitirle] | 0.458 µM |
